Here are results for six compounds from ChEMBL document CHEMBL3822392, “Design, synthesis and apoptosis inducing effect of novel (Z)-3-(3'-methoxy-4'-(2-amino-2-oxoethoxy)-benzylidene)indolin-2-ones as potential antitumour agents” (Eur J Med Chem, 2016).

SMILES strings stand for the structures. pIC50: −log10 of the molar value. The source made the active and inactive calls. The rule behind the calls is not given here.

The nature of experiment [1]: Cytotoxicity against human DU145 cells after 48 hrs by MTT assay. The experiment is classed as functional, cell-based. Conditions: DU-145, 48 h.
Experiment [2] in a line: Cytotoxicity against human BT549 cells after 48 hrs by MTT assay. The experiment is classed as functional, cell-based. Conditions: BT-549, 48 h.
Experiment [3] can be described thus: Cytotoxicity against human RWPE1 cells after 48 hrs by MTT assay. The experiment is classed as cell-based. The following applies: RWPE-1, 48 h.
Experiment [4] in a line: Cytotoxicity against human PC3 cells after 48 hrs by MTT assay. It counts as functional, cell-based. The following applies: PC-3, 48 h.
Another experiment relates to MDA-MB-231. Kind of experiment: cells. Conditions: Homo sapiens, MDA-MB-231, 48 h.
A short description of experiment [5]: Cytotoxicity against human PC3 cells assessed as cell viability at 2 uM after 48 hrs by trypan blue assay. It counts as functional. Conditions: PC-3, 48 h, read-out: Activity.
A short description of experiment [6]: Cytotoxicity against human PC3 cells assessed as cell viability at 4 uM after 48 hrs by trypan blue assay. It counts as functional. Conditions: PC-3, 48 h, read-out: Activity.
Experiment [7] concerns PC-3. Nature of the experiment: Cytotoxicity against human PC3 cells assessed as cell detachment at 1 to 4 uM after 48 hrs by phase contrast microscopic analysis relative to vehicle control. The experiment is classed as functional, cell-based.
Experiment [8] relates to PC-3. Nature of the experiment: Cytotoxicity against human PC3 cells assessed as cell shrinkage at 1 to 4 uM after 48 hrs by phase contrast microscopic analysis relative to vehicle control. The experiment is classed as functional, cell-based.
Experiment [9] can be described thus: Antimigratory activity in human PC3 cells at 1 uM after 24 hrs by wound healing assay (reference value: 43.4%). The experiment is classed as functional, PC-3.
A short description of experiment [10]: Antimigratory activity in human PC3 cells at 2 uM after 24 hrs by wound healing assay (reference value: 43.4%). It counts as functional, PC-3.
Experiment [11] is described as follows: Antimigratory activity in human PC3 cells at 4 uM after 24 hrs by wound healing assay (reference value: 43.4%). It counts as functional, PC-3.
Experiment [12] relates to PC-3. Nature of the experiment: Antimigratory activity in human PC3 cells at 1 to 2 uM after 48 hrs by wound healing assay. The experiment is classed as functional, cell-based.
Experiment [13] concerns PC-3. Nature of the experiment: Antimigratory activity in human PC3 cells after 24 to 48 hrs by assay. It counts as functional, cell-based.
Experiment [14] in a line: Cell cycle arrest in human PC3 cells assessed as accumulation at G0/G1 phase at 1 uM after 24 hrs by propidium iodide staining-based flow cytometry (reference value: 71.7%). The experiment is classed as functional. The following applies: PC-3.
A short description of experiment [15]: Cell cycle arrest in human PC3 cells assessed as accumulation at S phase at 1 uM after 24 hrs by propidium iodide staining-based flow cytometry (reference value: 9.3%). It counts as functional. The following applies: PC-3.
Experiment [16] is described as follows: Cell cycle arrest in human PC3 cells assessed as accumulation at G2/M phase at 1 uM after 24 hrs by propidium iodide staining-based flow cytometry (reference value: 19.2%). It counts as functional. The following applies: PC-3.
Experiment [17] is described as follows: Cell cycle arrest in human PC3 cells assessed as accumulation at G0/G1 phase at 2 uM after 24 hrs by propidium iodide staining-based flow cytometry (reference value: 71.7%). The experiment is classed as functional. The following applies: PC-3.
Experiment [18] can be described thus: Cell cycle arrest in human PC3 cells assessed as accumulation at S phase at 2 uM after 24 hrs by propidium iodide staining-based flow cytometry (reference value: 9.3%). The experiment is classed as functional. Conditions: PC-3.
A short description of experiment [19]: Cell cycle arrest in human PC3 cells assessed as accumulation at G2/M phase at 2 uM after 24 hrs by propidium iodide staining-based flow cytometry (reference value: 19.2%). It counts as functional. Conditions: PC-3.
The nature of experiment [20]: Cell cycle arrest in human PC3 cells assessed as accumulation at G0/G1 phase at 4 uM after 24 hrs by propidium iodide staining-based flow cytometry (reference value: 71.7%). It counts as functional. The following applies: PC-3.
Experiment [21] is described as follows: Cell cycle arrest in human PC3 cells assessed as accumulation at S phase at 4 uM after 24 hrs by propidium iodide staining-based flow cytometry (reference value: 9.3%). It counts as functional. The following applies: PC-3.
A short description of experiment [22]: Cell cycle arrest in human PC3 cells assessed as accumulation at G2/M phase at 4 uM after 24 hrs by propidium iodide staining-based flow cytometry (reference value: 19.2%). The experiment is classed as functional. The following applies: PC-3.
Experiment [23] can be described thus: Cell cycle arrest in human PC3 cells assessed as accumulation at G0/G1 phase after 24 hrs by propidium iodide staining-based flow cytometry. The experiment is classed as functional. The following applies: PC-3.
Experiment [24] has as its system PC-3. Kind of experiment: Antimigratory activity in human PC3 cells assessed as disruption of F-actin formation around nucleus at 1 to 4 uM after 12 hrs by rhodamine phalloidin/Hoechst […] staining-based confocal microscopic analysis. The experiment is classed as functional, cell-based.
The test system of experiment [25] is PC-3. Nature of the experiment: Induction of apoptosis in human PC3 cells after 24 hrs by Annexin V/FITC staining-based flow cytometric analysis. It counts as functional, cell-based.
Experiment [26] concerns PC-3. Kind of experiment: Induction of apoptosis in human PC3 cells assessed as chromatin condensation after 24 hrs by Hoechst […] staining-based confocal fluorescence microscopic analysis. It counts as functional, cell-based.
The test system of experiment [27] is PC-3. Kind of experiment: Induction of apoptosis in human PC3 cells assessed as nuclear fragmentation after 24 hrs by Hoechst […] staining-based confocal fluorescence microscopic analysis. It counts as functional, cell-based.
A short description of experiment [28]: Disruption of mitochondrial membrane potential in human PC3 cells at 1 to 4 uM after 24 hrs by Rhodamine123 staining-based spectrofluorimetric analysis relative to control. It counts as functional, PC-3.
Experiment [29] relates to PC-3. Kind of experiment: Disruption of mitochondrial membrane potential in human PC3 cells after 24 hrs by Rhodamine123 staining-based spectrofluorimetric analysis relative to control. It counts as functional, cell-based.
For experiment [30], the system named is PC-3. Kind of experiment: Increase in intracellular Ca2+ level in human PC3 cells after 24 hrs by Fura-2/AM staining-based fluorescence microscopic analysis. It counts as functional, cell-based.
Experiment [31] concerns PC-3. Kind of experiment: Induction of apoptosis in human PC3 cells assessed as late apoptotic cells at 1 uM after 24 hrs by Annexin V/FITC staining-based flow cytometric analysis (reference value: 4.3%). It counts as functional.
In experiment [32] the test system is PC-3. Nature of the experiment: Induction of apoptosis in human PC3 cells assessed as early apoptotic cells at 1 uM after 24 hrs by Annexin V/FITC staining-based flow cytometric analysis (reference value: 5.1%). It counts as functional.
Experiment [33] deals with PC-3. Kind of experiment: Induction of apoptosis in human PC3 cells assessed as live cells at 1 uM after 24 hrs by Annexin V/FITC staining-based flow cytometric analysis (reference value: 85.7%). It counts as functional.
Experiment [34] concerns PC-3. Nature of the experiment: Induction of apoptosis in human PC3 cells assessed as necrotic cells at 1 uM after 24 hrs by Annexin V/FITC staining-based flow cytometric analysis (reference value: […]). It counts as functional.
The subject of experiment [35] is PC-3. Nature of the experiment: Induction of apoptosis in human PC3 cells assessed as late apoptotic cells at 2 uM after 24 hrs by Annexin V/FITC staining-based flow cytometric analysis (reference value: 4.3%). The experiment is classed as functional.
Experiment [36] relates to PC-3. Nature of the experiment: Induction of apoptosis in human PC3 cells assessed as early apoptotic cells at 2 uM after 24 hrs by Annexin V/FITC staining-based flow cytometric analysis (reference value: 5.1%). It counts as functional.
Experiment [37] has as its system PC-3. Kind of experiment: Induction of apoptosis in human PC3 cells assessed as live cells at 2 uM after 24 hrs by Annexin V/FITC staining-based flow cytometric analysis (reference value: 85.7%). It counts as functional.
In experiment [38] the test system is PC-3. Nature of the experiment: Induction of apoptosis in human PC3 cells assessed as necrotic cells at 2 uM after 24 hrs by Annexin V/FITC staining-based flow cytometric analysis (reference value: […]). The experiment is classed as functional.
Experiment [39] deals with PC-3. Kind of experiment: Induction of apoptosis in human PC3 cells assessed as late apoptotic cells at 4 uM after 24 hrs by Annexin V/FITC staining-based flow cytometric analysis (reference value: 4.3%). The experiment is classed as functional.
The test system of experiment [40] is PC-3. Nature of the experiment: Induction of apoptosis in human PC3 cells assessed as early apoptotic cells at 4 uM after 24 hrs by Annexin V/FITC staining-based flow cytometric analysis (reference value: 5.1%). It counts as functional.
Experiment [41] has as its system PC-3. Kind of experiment: Induction of apoptosis in human PC3 cells assessed as live cells at 4 uM after 24 hrs by Annexin V/FITC staining-based flow cytometric analysis (reference value: 85.7%). It counts as functional.
Experiment [42] deals with PC-3. Kind of experiment: Induction of apoptosis in human PC3 cells assessed as necrotic cells at 4 uM after 24 hrs by Annexin V/FITC staining-based flow cytometric analysis (reference value: […]). The experiment is classed as functional.
The subject of experiment [43] is PC-3. Nature of the experiment: Induction of apoptosis in human PC3 cells assessed as caspase 3 activation after 24 hrs by Western blot analysis. The experiment is classed as functional, cell-based.
The test system of experiment [44] is PC-3. Nature of the experiment: Induction of apoptosis in human PC3 cells assessed as downregulation of Bcl2 expression after 24 hrs by Western blot analysis. The experiment is classed as functional, cell-based.
Experiment [45] can be described thus: Induction of apoptosis in human PC3 cells assessed as upregulation of Bax expression after 24 hrs by Western blot analysis. It counts as functional, cell-based. The following applies: PC-3.

Description for MDA-MB-231: Cytotoxicity against human MDA-MB-231 cells after 48 hrs by MTT assay

As to `CCN(CC)CCNC(=O)c1c(C)[nH]c(/C=C2\C(=O)Nc3ccc(F)cc32)c1C` [SUNITINIB], the pIC50 in experiment [1] was 4.79; in [2], 4.81; in experiment [3], 4.64; in [4], 4.71; with MDA-MB-231 it was 5.13.
The like results for `COc1cc(/C=C2\C(=O)Nc3ccccc32)ccc1OCC(=O)N1CCOCC1` were, in that order, 5.24, 5.05, 4.09, 5.22 and 5.01.
On the same counts, the results for `COc1cc(/C=C2\C(=O)Nc3ccccc32)ccc1OCC(=O)N1CCCCC1` are 5.18, less than 4.70, 4.11, 5.16 and 4.71.
`COc1cc(/C=C2\C(=O)Nc3ccccc32)ccc1OCC(=O)N1CCc2ccccc21`: the pIC50 in [1] was 5.71; in experiment [2], 5.14; in [3], less than 4.00; in experiment [4] it was 5.72; in the experiment on MDA-MB-231, 5.20. For the same compound, the viability at 2 µM in experiment [5] was determined as 53%. In addition, the viability at 4 µM in experiment [6] came out at 45%. In addition, the outcome with PC-3 [7], in the experiment with PC-3 [8], with PC-3 [12] and in the experiment with PC-3 [24] was Active. The Activity in experiment [9] is 37.3%; in experiment [10] it was 29.4%; in [11] it was 7.3%; in the experiment with PC-3 [13] it was “Dose-dependent effect”; in [14] it was 39.1%; in [15] it was 18.5%. The Activity in [16] is 41.6%; in experiment [17], 20.8%; in experiment [18], 27.6%; in experiment [19], 49.8%; in experiment [20], 19.4%; in experiment [21] it was 24.2%. Besides, the Activity is 55.7% in experiment [22]; “Dose-dependent effect” in [23]; “Dose-dependent effect” in the experiment with PC-3 [25]; “Dose-dependent effect” with PC-3 [26]; “Dose-dependent effect” with PC-3 [27]; 19% in experiment [28]. The Activity result in the experiment with PC-3 [29] is “Dose-dependent effect”; in the experiment with PC-3 [30], “Dose-dependent effect”; in the experiment with PC-3 [31], 8.3%; in the experiment on PC-3 [32], 13.6%; in the experiment with PC-3 [33] it was 77.7%; in the experiment on PC-3 [34], 0.4%. For the same compound, the Activity is on record as 10.2% in the experiment with PC-3 [35]; 17.6% with PC-3 [36]; 70.9% in the experiment on PC-3 [37]; 1.3% in the experiment with PC-3 [38]; 22.4% in the experiment on PC-3 [39]; 15.8% in the experiment with PC-3 [40]. The Activity in the experiment with PC-3 [41] was 57.4%; in the experiment with PC-3 [42], 4.4%; with PC-3 [43] it was “Dose-dependent effect”; with PC-3 [44], “Dose-dependent effect”; in [45] it was “Dose-dependent effect”.
As to `COc1cc(/C=C2\C(=O)Nc3ccccc32)ccc1OCC(=O)N1CC(C)OC(C)C1` (centres undefined), the pIC50 (in [1]; in experiment [2]; in [4]; in the experiment on MDA-MB-231) was less than 4.70 each time.
`COc1cc(/C=C2\C(=O)Nc3ccccc32)ccc1OCC(=O)N1CCCC1`: the pIC50 (in experiment [1]; in experiment [2]; in experiment [4]; in the experiment with MDA-MB-231) was less than 4.70 each time.
